In publication PMC4663795, “Alkanols inhibit voltage-gated K^+ channels via a distinct gating modifying mechanism that prevents gate opening” (Scientific Reports, 2015):
Several values for one entry are separate records, joined by “and”; a condition that tells them apart may be missing. Equal entries are not always repeated. Where two headings read alike, the source gives them in different places.

What was measured:
Shaker-IR-P475A [1] = biological target: T1, Shaker-IR-P475A (Drosophila melanogaster, UniProt P08510, DEL6-46/P475A); conditions: cited from earlier work
T1 construct: expressed in transfected cells; host or cells: HEK293
T1 sequence (P08510 other isoform, or with tags, fused parts or gaps DEL6-46/P475A): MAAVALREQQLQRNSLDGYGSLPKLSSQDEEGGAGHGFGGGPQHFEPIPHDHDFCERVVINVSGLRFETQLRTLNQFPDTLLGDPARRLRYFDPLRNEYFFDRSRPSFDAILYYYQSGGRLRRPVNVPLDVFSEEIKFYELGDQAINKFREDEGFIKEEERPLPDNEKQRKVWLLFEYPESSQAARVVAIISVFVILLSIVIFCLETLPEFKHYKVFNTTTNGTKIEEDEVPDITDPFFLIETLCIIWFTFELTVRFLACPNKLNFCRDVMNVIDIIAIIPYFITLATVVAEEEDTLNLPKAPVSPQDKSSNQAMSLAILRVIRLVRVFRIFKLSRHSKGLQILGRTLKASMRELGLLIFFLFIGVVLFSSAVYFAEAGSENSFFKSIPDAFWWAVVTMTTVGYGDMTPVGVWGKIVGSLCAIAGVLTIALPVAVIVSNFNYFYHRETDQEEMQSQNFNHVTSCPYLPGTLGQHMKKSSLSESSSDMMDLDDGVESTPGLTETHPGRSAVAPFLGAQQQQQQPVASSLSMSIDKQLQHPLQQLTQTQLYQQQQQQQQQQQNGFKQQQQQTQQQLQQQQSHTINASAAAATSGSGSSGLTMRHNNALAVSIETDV

Shaker-IR-W434F [2] = biological target: T2, Shaker-IR-W434F (Drosophila melanogaster, UniProt P08510, DEL6-46/W434F); design: method as in PMID 11463634; conditions: cited from earlier work
T2 construct: expressed in transfected cells; host or cells: HEK293
T2 sequence (P08510 other isoform, or with tags, fused parts or gaps DEL6-46/W434F): as the sequence (P08510 other isoform, or with tags, fused parts or gaps DEL6-46/P475A) above, with W393F, A434P counted along it

Shaker-IR-W434F [3] = biological target: T2, Shaker-IR-W434F; assay: cell-based; format: cell-based; conditions: for QV curve V1/2: voltage dependence of VSD movement; for gating charge immobilized (reduction in gating charge movement): general statement, no concentration given
Source text: (§1) The N-terminal deletion Δ6–46 Shaker clone (Shaker-IR), which removes fast inactivation, was used in this study. The W434F mutation, which yields a non-conducting Shaker-IR-W434F channel, and the P475A mutation were introduced as described previously. All channel constructs were expressed using a pGW1 expression vector. The plasmid that codes for the green fluorescent protein, used to identify transfected cells, was purchased from Clontech (Palo Alto, CA, USA). Plasmid DNA for mammalian expression was obtained by amplification in XL2 Bluescript cells (Stratagene), and afterwards isolated using the endotoxin-free Maxiprep kit (Macherey-Nagel, Düren, Germany). The cDNA concentration was determined by UV absorption.
(§2) HEK293 cells were cultured in Modified Eagle’s Medium (MEM) supplemented with 10% fetal bovine serum, 1% penicillin/streptomycin and 1% non-essential amino acids (Invitrogen, Carlsbad, CA, USA). Cells were transiently transfected with the appropriate channel DNA plasmids using polyethyleneimine that was purchased from Sigma-Aldrich (St Louis, MO, USA), details of procedure was described previously.
(§3) Whole-cell ionic IK or gating IG current measurements were done at room temperature (20 to 23 °C) using an Axopatch-200B amplifier and the recordings were digitized with a Digidata-1200 A acquisition system (Molecular Devices, Sunnyvale, CA, USA). Both IK and IG recordings were digitized at 10 kHz sampling rate after passing a 5 KHz Bessel low-pass filter. Command voltages and data storage were controlled with pClamp10 software. Patch pipettes were pulled from 1.2 mm quick-fill borosilicate glass capillaries (World Precision Instruments, Sarasota, FL, USA) with a P-2000 puller (Sutter Instrument Co., Novato, CA, USA) and afterwards heat-polished, to have patch pipettes with a resistance of approximately 1.5 MOhm determined with the filled pipette in the bath solution.
(§4) For IK measurements the cells were constantly superfused with external bath solution that contained (in mM) NaCl 130, KCl 4, CaCl2 1.8, MgCl2 1, HEPES 10, Glucose 10, adjusted to pH 7.35 with NaOH. The patch pipettes were filled with internal solution containing (in mM) KCl 110, K4BAPTA 5, K2ATP 5, MgCl2 1, HEPES 10, adjusted to pH 7.2 with KOH. For IG measurements the monovalent cations were replaced with N-methyl-D-glucamine (NMG^+). The bath solution contained (in mM) NMG^+ 140, HEPES 10, Glucose 10, MgCl2 1, CaCl2 1.8, titrated to pH 7.35 with HCl. The pipette solution contained (in mM) NMG^+ 140, HEPES 10, EGTA 10, MgCl2 1, titrated to pH 7.2 with HCl. Junction potentials were zeroed with the filled pipette in the bath solution and experiments were excluded from analysis if the voltage error estimate exceeded 5 mV after series resistance compensation. For IG measurements, leak currents and remaining capacitive currents were subtracted online using a −P/6 protocol (using a holding potential of −95 mV). IK recordings were not leak corrected.
(§5) For the highest concentration of 1-BuOH tested (300 mM), the osmolarity of the extracellular solution for IK or IG recordings increased by approximately 300 mOsm resulting in a total osmolarity of ~640 mOsm. […] All compounds were applied to the cells using a pressurized fast perfusion system equipped with a quartz micromanifold (ALA scientific, Farmingdale, NY, USA), allowing rapid exchange of the external solutions.
(§6) Details of pulse protocols used to elicit IK or IG recordings were adjusted to determine the biophysical properties of each construct adequately and are shown in the figures or described in legends. All the graphs were built using SigmaPlot 11.0 (Systat Software Inc., San Jose, CA, USA).

Shaker-IR channel = biological target: T3, Shaker-IR channel (Drosophila melanogaster, UniProt P08510, DEL6-46); assay: cell-based; format: cell-based; conditions: for GV curve V1/2: voltage dependence of gate opening; for IC50: normalized steady-state IK amplitude at 0 mV, Hill fit, read-out: IC50 of ionic current (IK) inhibition; for Hill coefficient of IK inhibition concentration-response curve: steady-state IK at 0 mV
T3 construct: expressed in transfected cells; host or cells: HEK293
T3 sequence (P08510 other isoform, or with tags, fused parts or gaps DEL6-46): as the sequence (P08510 other isoform, or with tags, fused parts or gaps DEL6-46/P475A) above, with A434P counted along it
Source text: as §1, §2, §3, §4, §5, §6

Shaker-IR-W434F-P475A = biological target: T4, Shaker-IR-W434F-P475A (Drosophila melanogaster, UniProt P08510, DEL6-46/P475A/W434F); format: cell-based
T4 construct: expressed in transfected cells; host or cells: HEK293
T4 sequence (P08510 other isoform, or with tags, fused parts or gaps DEL6-46/W434F/P475A): as the sequence (P08510 other isoform, or with tags, fused parts or gaps DEL6-46/P475A) above, with W393F counted along it
Source text: as §1, §2, §3, §4, §5, §6

Shaker-IR-P475A [4] = biological target: T1, Shaker-IR-P475A; assay: cell-based; format: cell-based; conditions: for GV curve V1/2: from tail currents; for Hill coefficient of weighted τIKac concentration-response curve / IC50: weighted τIKac at +100 mV; for IC50: read-out: IC50 of acceleration of weighted τIKac
Source text: as §1, §2, §3, §4, §5, §6

[5] = integrated steady-state IGac normalized to control, read-out: IC50 of reduction in total gating charge
[6] = weighted τIGdeac at −90 mV, read-out: IC50 of acceleration of VSD deactivation time constant (τIGdeac)

Nc1ccncc1 [4-AP, 4-aminopyridine]
sensitivity of the P475A mutant to the drug (Shaker-IR-P475A [1]): insensitive | reduction in gating charge movement (Shaker-IR-W434F [2]): 10% | loss of gating charge movement (Shaker-IR-W434F [3]; 1 mM 4-AP): approximately 10% | inhibition at 30 µM (Shaker-IR channel; HEK293, read-out: steady-state IK inhibition): ~50%

CCCCO [1-BuOH, 1-Butanol]
QV curve 1st comp V1/2 (Shaker-IR-W434F-P475A; 300 mM 1-BuOH): −39.2 ± 1.4 mV | QV curve 1st comp k (Shaker-IR-W434F-P475A; 300 mM 1-BuOH): 16.2 ± 1.2 mV | QV curve 2nd comp V1/2 (Shaker-IR-W434F-P475A; 300 mM 1-BuOH): 52.2 ± 1.2 mV | QV curve 2nd comp k (Shaker-IR-W434F-P475A; 300 mM 1-BuOH): 9.1 ± 1.1 mV | Hill coefficient of gating charge reduction concentration-response curve (Shaker-IR-W434F [3]): 1.5 ± 0.2 | maximal reduction in charge movement (Shaker-IR-W434F [3]; 300 mM 1-BuOH): approximately 10% | τIGdeac at −120 mV (Shaker-IR-W434F [3]; 300 mM 1-BuOH): 0.48 ± 0.08 ms | extra reduction of gating charge movement on addition to 4-AP (Shaker-IR-W434F [3]; 300 mM 1-BuOH in continued presence of 1 mM 4-AP): did not result in an extra reduction of gating charge movement | QV curve V1/2 (Shaker-IR-W434F [3]; 300 mM 1-BuOH): −32.4 ± 3.4 mV | gating charge immobilized (reduction in gating charge movement) (Shaker-IR-W434F [3]): 10% | IC50 (Shaker-IR-W434F [3]; [5]): 88 ± 2 mM | Hill coefficient of τIGdeac concentration-response curve (Shaker-IR-W434F [3]; weighted τIGdeac at −90 mV): 1.3 ± 0.4 | IC50 (Shaker-IR-W434F [3]; [6]): 67 ± 1 mM | GV curve slope factor k (Shaker-IR channel; 50 mM 1-BuOH): 5.1 ± 0.7 mV | GV curve V1/2 (Shaker-IR channel; 50 mM 1-BuOH): −28.5 ± 2.3 mV | time constant of current recovery upon wash-out (Shaker-IR channel; after 50 mM 1-BuOH): 7.6 ± 2.1 s | time constant of development of IK inhibition (Shaker-IR channel; application of 50 mM 1-BuOH): 5.2 ± 1.2 s | IC50 (Shaker-IR channel): ~50 mM and 50 mM and 51.8 mM | Hill coefficient of IK inhibition concentration-response curve (Shaker-IR channel): 0.92 ± 0.04 | effect on IK of the P475A mutant (Shaker-IR-P475A [4]): concentration-dependent increase in IK | GV curve slope factor k (Shaker-IR-P475A [4]; 100 mM 1-BuOH): 9.6 ± 0.4 mV | GV curve V1/2 (Shaker-IR-P475A [4]; 100 mM 1-BuOH): 62 ± 1 mV | GV curve slope factor k (Shaker-IR-P475A [4]; 300 mM 1-BuOH): 6.8 ± 0.7 mV | GV curve V1/2 (Shaker-IR-P475A [4]; 300 mM 1-BuOH): 50 ± 1 mV | Hill coefficient of weighted τIKac concentration-response curve (Shaker-IR-P475A [4]): 1.5 ± 0.4 | IC50 (Shaker-IR-P475A [4]): 58.8 ± 3 mM

CCCCCCO [1-HeOH, 1-Hexanol]
QV curve 1st comp V1/2 (Shaker-IR-W434F-P475A; 30 mM 1-HeOH): −35.3 ± 1.5 mV | QV curve 2nd comp V1/2 (Shaker-IR-W434F-P475A; 30 mM 1-HeOH): 50.2 ± 1.1 mV | QV curve 2nd comp k (Shaker-IR-W434F-P475A; 30 mM 1-HeOH): 3.6 ± 1.4 mV | Hill coefficient of gating charge reduction concentration-response curve (Shaker-IR-W434F [3]): 1.5 ± 0.2 | maximal reduction in charge movement (Shaker-IR-W434F [3]; 30 mM 1-HeOH): ~12% | τIGdeac at −120 mV (Shaker-IR-W434F [3]; 30 mM 1-HeOH): 0.53 ± 0.10 ms | QV curve V1/2 (Shaker-IR-W434F [3]; 30 mM 1-HeOH): −31.4 ± 0.9 mV | gating charge immobilized (reduction in gating charge movement) (Shaker-IR-W434F [3]): 10% | IC50 (Shaker-IR-W434F [3]; [5]): 13.8 ± 1.6 mM | Hill coefficient of τIGdeac concentration-response curve (Shaker-IR-W434F [3]; weighted τIGdeac at −90 mV): 1.6 ± 0.3 | IC50 (Shaker-IR-W434F [3]; [6]): 3 ± 0.4 mM | GV curve slope factor k (Shaker-IR channel; 3 mM 1-HeOH): 7.5 ± 0.9 mV | GV curve V1/2 (Shaker-IR channel; 3 mM 1-HeOH): −25.4 ± 1.2 mV | time constant of current recovery upon wash-out (Shaker-IR channel; after 3 mM 1-HeOH): 4.8 ± 1.7 s | time constant of development of IK inhibition (Shaker-IR channel; application of 3 mM 1-HeOH): 3.7 ± 0.7 s | IC50 (Shaker-IR channel): ~3 mM and 2.7 mM | Hill coefficient of IK inhibition concentration-response curve (Shaker-IR channel): 1.13 ± 0.22 | effect on IK of the P475A mutant (Shaker-IR-P475A [4]): concentration-dependent increase in IK | GV curve slope factor k (Shaker-IR-P475A [4]; 10 mM 1-HeOH): 10.7 ± 0.6 mV | GV curve V1/2 (Shaker-IR-P475A [4]; 10 mM 1-HeOH): 64 ± 1 mV | GV curve slope factor k (Shaker-IR-P475A [4]; 30 mM 1-HeOH): 6.6 ± 0.6 mV | GV curve V1/2 (Shaker-IR-P475A [4]; 30 mM 1-HeOH): 49 ± 1 mV | Hill coefficient of weighted τIKac concentration-response curve (Shaker-IR-P475A [4]): 1.3 ± 0.3 | IC50 (Shaker-IR-P475A [4]): 4.6 ± 0.8 mM
